Assay results taken from ChEMBL document CHEMBL1158015, “New steroid glycosides from the deep-water starfish Mediaster murrayi” (J Nat Prod, 1999).

Assays:
[1] = Inhibition of cell division of sea urchin fertilized eggs at 25 uM; type: functional; conditions: Strongylocentrotus intermedius, Egg
[2] = Toxicity in mouse erythrocytes assessed as hemolysis; type: cell-based, Erythrocyte; conditions: read-out: ED50 (the source's name)
[3] = Inhibition of cell division of sea urchin fertilized eggs at 100 uM; type: functional; conditions: Strongylocentrotus intermedius, Egg

| Compound | inhibition at 25 µM [1] [%] | HC50 [2] [µM] | inhibition at 100 µM [3] [%] |
| --- | --- | --- | --- |
| CO[C@H]1[C@H](OC[C@@H]2O[C@@H](O[C@@H](CC[C@@H](C)[C@H]3C[C@@H](O)[C@@H]4[C@]3(C)CC[C@H]3[C@@]4(O)C[C@H](O)C4C[C@@H](O)CC[C@@]43C)C(C)C)[C@H](O)[C@H]2O)OC[C@@H](O)[C@@H]1O (some centres undefined) [MEDIASTEROSIDE M1] | 100 | 66 |  |
| CC(C)[C@H](CC[C@@H](C)[C@H]1C[C@@H](O)[C@@H]2[C@]1(C)CC[C@H]1[C@@]2(O)C[C@H](O)C2C[C@@H](O)CC[C@@]21C)O[C@@H]1O[C@@H](CO[C@@H]2OC[C@@H](O)[C@H](O)[C@H]2O)[C@H](O)[C@H]1O (some centres undefined) [MEDIASTEROSIDE M2] |  | 35 | 100 |
